Laboratory results taken from patent US5574068A, “S-nitrosothiols as smooth muscle relaxants and therapeutic uses thereof” (Brigham and Woman's Hospital, priority 1994, dated 1996).
Entries after “also recorded” stand apart in the source; their conditions may differ.

How the values were obtained:
[1] = test system: human airway smooth muscle; experiment: Airway bioassay: relaxation of contracted human tracheal/airway rings; format: cell-based; conditions: for IC50: human airways 5-12 mm outer diameter, contracted with methacholine (7 μM); for IC50 compared with theophylline: human airways contracted with methacholine (7 μM); for relaxant effect on human trachea, comparison with other agents: human tracheal rings, FIGS. 11-14; for inhibition of S-nitrosothiol (SNOAC)-induced relaxation in human airways: methylene blue 10^-4, LY83583 5×10^-5, hemoglobin 100 μM
Text: (§1) Male Hartley guinea pigs (500-600 g) were anesthetized by inhalation of enflurane to achieve a surgical plane of anesthesia. The trachea were excised and placed in Kreb's-Henseleit buffer (mM): NaCl 118, CKl 5.4, NaH2 PO4 1.01, glucose 11.1, NaHCO3 25.0, MgSO4 0.69, CaCl 2.32, pH 7.4. The airways were then dissected free from surrounding fat and connective tissue and cut into rings 2-4 mm in diameter. The trachea rings were placed in sterile Medium 199 containing 1% antibiotic/antimycotic mixture in an atmosphere of 5% CO2, 45% O2, […], and kept for up to 48 hours in tissue culture. The experiments were also performed on human airway smooth muscle, isolated by the same method.
(§2) Trachea and aortic rings were mounted on stirrups and connected to transducers (model FOT3C Grass) with which changes in isometric tension were measured. Rings were then suspended in 10 cc of oxygenareal (95% O2, 5% CO2) buffer. Conditions for both the vessel and airway bioassays were established according to standard methodologies as described in Cooke et al., Am. J. Physiol. 259(3):H804-H812 (1990).
(§3) In airway experiments, the tings were equilibrated for 60 minutes under a load of 1 gm and then primed twice by exposure to 100 μmethacholine. Tissues were contracted with various agonists at concentrations determined to generate 50% (±16% S.D.) of maximum tone, after which the effects of different thiols and their S-nitrosylated derivatives were assessed. In selected experiments, relaxation responses were determined in the presence of hemoglobin, or after rings had been preexposed to methylene blue for 30 minutes.
(§4) The effect of guanylate cyclase inhibitors upon S-nitrosothiol-induced airway relaxation and cGMP increase was assessed, using the previously described bioassay and cyclic nucleotide assay procedures. Bronchodilator effects of S-NOGSH and SNOAC were examined in human airways (5-12 mm outer diameter).

[2] = test system: cGMP in human airways; experiment: Cyclic GMP radioimmunoassay in human airways; format: cell-based
Description: (§5) The mechanism by which S-nitrosothiols relax vascular smooth muscle is felt to be through activation of guanylate cyclase with consequent increase in intracellular cyclic GMP (Ignarro et al., Circ. Res. 65:1-21 (1989); Loscalzo et al., J. Pharmacol. Exp. Ther. 249(3):726-729 (1989)). In order to assess this mechanism in airways, tracheal rings in Kreb's-Henseleit solution were exposed to 100 μM S-nitroso-N-acetylcysteine (SNOAC) for 90 seconds. Reactions were terminated by the addition of ice cold 10% trichloracetic acid and rapid freezing in ethanol-saturated dry ice.
(§6) In selected experiments, rings were preexposed to the guanylate cyclase inhibitor, methylene blue (10^-4 M) for 30 minutes. Tissues were then individually pulverized with a glass (s) homogenizer and centrifuged at 8000 g for 5 minutes. The clear supernatant was extracted with water-saturated ether and assayed for cyclic GMP by radioimmunoassay. Acetylation of samples with acetic anhydride was used to increase the sensitivity of the assay and the determination of recoveries was aided by the use of [^3 H] cyclic GMP.
as §4

[3] = test system: gastrointestinal smooth muscle (Sphincter of Oddi, duodenum, colon); experiment: Patient studies: topical administration during endoscopy, gastrointestinal smooth muscle motility; format: in vivo, human; conditions: patients
Text: Patient studies, conducted by the inventors, have measured the efficacy of S-nitrosothiols both in facilitating cannulation of the sphincter of Oddi, and in decreasing colon motility to allow for removal of colon polyps. […] The same type of effects would occur with the use of other cell impermeable S-nitrosothiols, such as S-nitroso-glutathione.

[4] = test system: guinea pig tracheal rings; experiment: Airway bioassay: relaxation of contracted guinea pig tracheal rings (isometric tension); format: cell-based; conditions: for IC50: Cavia porcellus, guinea pig tracheal rings contracted with 3 μM histamine, mean ± S.D., read-out: Inhibitory Concentrations Inducing 50% Relaxation (IC50); for inhibition of relaxation responses to SNOAC: airways contracted with 3 uM histamine, 10^-5 M and 10^-4 M methylene blue; for inhibition of relaxation responses to SNOAC / attenuation of the actions (relaxation) of SNOAC: 10^-4 M hemoglobin; for attenuation of the actions (relaxation) of SNOAC: guinea pig airways, 10^-5 and 10^-4 M methylene blue
Text: as §1, §2, §3
Dose-response relationships to SNOAC were obtained in airways contracted with 3 uM histamine, and repeated in the presence of 10^-4 M hemoglobin, 10^-5 M methylene blue, and 10^-4 M methylene blue. […] Cyclic GMP determinations were performed in duplicate for each experiment.

[5] = Stability in the presence of oxygen and redox metals; format: physicochemical; conditions: 95% O2, pH 7.4
Description: The stability of SNOAC and SNOGSH in the presence of oxygen and redox metals was assessed.
In addition, S-nitrosothiol stability was assessed in the presence of various redox metals or chelating agents. These compounds were resistant to decomposition when Cu^+, Fe^2+, or Cu^2+ (50 μM) or defuroxamine or EDTA S-nitrosothiols are not rapidly inactivated in the presence of oxygen, nor do they decompose in the presence of redox metals.

[6] = test system: cyclic GMP (guanylate cyclase) in tracheal rings; experiment: Cyclic GMP radioimmunoassay in guinea pig tracheal rings; format: cell-based
Description: as §5, §6

[7] = target: T1, hemoglobin (Bos taurus, UniProt P01966+P02070); experiment: Reaction of S-nitrosothiol with hemoglobin (UV spectrum, oxygen association curve); format: biochemical, bovine; conditions: SNOAC over 15 minutes, NO from NaNO2 in 0.5N HCl
T1 construct: purchased Sigma Chemical Co., St. Louis, Mo
Description: Additional experiments were conducted to evaluate the reaction between S-nitrosothiols and hemoglobin. […] S-nitrosylation was verified, using standard methods for detection of S-nitrosothiols (Saville, Analyst 83:670-672 (1958)). The Saville method, which assays free NOx in solution, involves a diazotization reaction with sulfanilamide and subsequent coupling with the chromophore N-(1-naphthyl)ethylenediamine. The specificity for S-nitrosothiols derives from assay determinations performed in the presence and absence of HgCl2, the latter reagent catalyzing the hydrolysis of the S--NO bond.
For the purposes of comparison, equimolar concentrations of hemoglobin and NaNO2 were reacted in 0.5N HCl, to form nitrosyl-hemoglobin, and the UV spectrum was obtained.
Thus, the reaction between S-nitrosothiols and hemoglobin not only eliminates the inhibition of oxygen binding which occurs from the reaction with NO.cndot., but actually increases binding and oxygenation of the blood.

[8] = cited from earlier work

T1 sequence (P02070 whole entry): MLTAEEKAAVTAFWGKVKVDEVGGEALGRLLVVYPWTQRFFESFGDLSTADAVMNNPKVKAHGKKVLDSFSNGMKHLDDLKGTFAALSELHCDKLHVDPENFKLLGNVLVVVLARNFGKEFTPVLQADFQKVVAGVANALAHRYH
T1 sequence (P01966 2-142 limits assumed): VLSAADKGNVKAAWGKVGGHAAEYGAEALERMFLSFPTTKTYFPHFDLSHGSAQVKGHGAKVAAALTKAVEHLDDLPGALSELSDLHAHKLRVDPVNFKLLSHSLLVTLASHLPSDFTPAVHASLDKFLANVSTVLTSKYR

Molecule: CC(=O)N[C@@H](CSN=O)C(=O)O [S-nitroso-N-acetylcysteine]
- IC50 [1]: 22 µM
- IC50 compared with theophylline [1]: approximately two orders of magnitude greater than theophylline
- relaxant effect on human trachea, comparison with other agents ([1]; listed as SNOAC): significantly greater than that of N-acetylcysteine; also recorded: significantly more potent than that of theophylline; also recorded: compares favorably with that exerted by isoproterenol
- increase in cyclic GMP over basal levels (control) ([2]; human airways incubated with SNOAC): 4 fold
- cGMP ([2]; human airways, Table 3): 46 ± 17 Pmol/gm
- duration and reversibility of relaxant effects [3]: temporary (lasting only for the duration of the procedure), completely reversible
- systemic blood pressure, heart rate, oxygen saturation [3]: produced no change in systemic blood pressure, heart rate or oxygen saturation
- colon motility ([3]; removal of colon polyps): eliminated colon motility
- duodenal motility ([3]; topical administration): eliminated duodenal motility
- contractile activity of the Sphincter of Oddi ([3]; topical administration, endoscopic cannulation): inhibited the contractile activity of the Sphincter of Oddi
- persistence of relaxation ([4]; 5×10^-6 M, at one hour): significant residual loss of tone was still evident at one hour
- time to maximal relaxation ([4]; 5×10^-6 M, followed over 60 minutes): maximal relaxation occurred by five minutes
- IC50 [4]: 2.1 ± 0.8 µM
- relaxant activity of SNOAC relative to SNOCAP ([4]; contractions induced by leukotriene D4, histamine, methacholine, in every case): approximately 10 fold
- relaxant activity relative to theophylline ([4]; identical study conditions, FIG. 8): approximately 50 times
- half life [5]: on the order of hours
- increase in cyclic GMP over basal levels (control) ([6]; guinea pig tracheal rings, 100 μM SNOAC, 90 seconds): 4 fold
- reaction at the redox metal (iron-binding) site of hemoglobin [7]: no reaction at the redox metal (iron-binding site) of hemoglobin

Molecule: CC(=O)N[C@@H](CS)C(=O)O [N-acetylcysteine, reference compound]
- relaxant effect on human trachea, comparison with other agents [1]: caused significant constriction of the tracheal smooth muscle

Molecule: [N]=O [NO, nitric oxide, reference compound]
- half life [5]: on the order of seconds
- reaction at the redox metal (iron-binding) site of hemoglobin [7]: reacted instantaneously with the redox metal site on hemoglobin

Molecule: hemoglobin: hemoglobin (bovine), established inhibitor of NO-induced relaxations
- inhibition of S-nitrosothiol (SNOAC)-induced relaxation in human airways [1]: neither hemoglobin or methylene blue attenuated the relaxation effect; also recorded: had little effect
- inhibition of relaxation responses to SNOAC [4]: inhibited
- attenuation of the actions (relaxation) of SNOAC [4]: 10-20%

Molecule: C[C@H](CSN=O)C(=O)N1CCC[C@H]1C(=O)O [S-nitroso-captopril]
- IC50 [4]: 20 ± 0.7 µM

Molecule: CC(C)NCC(O)c1ccc(O)c(O)c1 (stereo not shown) [isoproterenol, reference compound]
- rank of relaxant activity among SNOAC, isoproterenol, theophylline ([4]; FIG. 8): most active relaxant

Molecule: CN(C)c1ccc2nc3ccc(=[N+](C)C)cc-3sc2c1 [methylene blue, reference compound]
- inhibition of S-nitrosothiol (SNOAC)-induced relaxation in human airways [1]: neither hemoglobin or methylene blue attenuated the relaxation effect; also recorded: not significantly inhibited
- inhibition of relaxation responses to SNOAC [4]: in a dose-dependent manner
- attenuation of the actions (relaxation) of SNOAC [4]: 10-20%
- effect on SNOAC-induced increase in cyclic GMP ([6]; pretreatment with methylene blue 10^-4 M, 30 minutes): attenuated

Molecule: Cn1c(=O)c2[nH]cnc2n(C)c1=O [theophylline]
- plasma concentration at which unacceptable symptoms of toxicity usually appear [8]: ≥ 20000 ng/mL

Molecule: N[C@@H](CSN=O)C(=O)O [S-nitroso-cysteine]
- IC50 [4]: 3.2 ± 0.2 µM

Molecule: N[C@@H](CCC(=O)N[C@@H](CSN=O)C(=O)NCC(=O)O)C(=O)O [S-nitroso-glutathione]
- IC50 [1]: 22 µM
- IC50 compared with theophylline [1]: approximately two orders of magnitude greater than theophylline
- relaxant effect on human trachea, comparison with other agents [1]: significantly greater than nitrite (NO2)
- relaxant effect on human trachea, comparison with other agents ([1]; listed as S-nitrosoglutathione): significantly greater than glutathione alone
- relaxant effect on human trachea, comparison with other agents ([1]; listed as SNOGSH): significantly more potent than that of theophylline; also recorded: compares favorably with that exerted by isoproterenol
- IC50 [4]: 0.99 ± 2 µM
- half life [5]: on the order of hours

Molecule: N[C@@H](CCSN=O)C(=O)O [S-nitroso-homocysteine]
- IC50 [4]: 2.1 ± 0.3 µM
